# Measurements from ChEMBL document CHEMBL1131913 (Bioorg Med Chem Lett, 1999).
# Assays:
# [1] = target: T1, Prostaglandin G/H synthase 2 (Homo sapiens, UniProt P35354); experiment: In vitro inhibitory activity against Prostaglandin G/H synthase 2 (COX-2) in human
# T1 sequence (P35354 whole entry): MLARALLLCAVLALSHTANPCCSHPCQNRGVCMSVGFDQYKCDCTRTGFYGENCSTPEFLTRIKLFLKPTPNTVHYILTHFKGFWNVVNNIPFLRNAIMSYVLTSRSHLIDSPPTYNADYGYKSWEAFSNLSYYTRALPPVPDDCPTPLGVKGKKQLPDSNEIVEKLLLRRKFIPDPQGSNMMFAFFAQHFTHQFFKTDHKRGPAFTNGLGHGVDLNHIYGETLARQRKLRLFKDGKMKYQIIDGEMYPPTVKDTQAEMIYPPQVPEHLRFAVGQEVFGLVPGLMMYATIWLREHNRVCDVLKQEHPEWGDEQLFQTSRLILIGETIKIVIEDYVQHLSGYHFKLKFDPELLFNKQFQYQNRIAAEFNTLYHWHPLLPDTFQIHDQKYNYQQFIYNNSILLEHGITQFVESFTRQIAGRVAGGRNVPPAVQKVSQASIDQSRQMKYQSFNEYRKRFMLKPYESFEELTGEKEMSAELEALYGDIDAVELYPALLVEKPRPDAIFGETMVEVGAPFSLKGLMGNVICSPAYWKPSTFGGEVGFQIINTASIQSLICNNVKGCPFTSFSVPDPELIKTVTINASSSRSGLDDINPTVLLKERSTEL
# [2] = target: T2, Prostaglandin G/H synthase 1 (Ovis aries, UniProt P05979); experiment: In vitro inhibitory activity against Prostaglandin G/H synthase 1 in sheep
# T2 sequence (P05979 whole entry): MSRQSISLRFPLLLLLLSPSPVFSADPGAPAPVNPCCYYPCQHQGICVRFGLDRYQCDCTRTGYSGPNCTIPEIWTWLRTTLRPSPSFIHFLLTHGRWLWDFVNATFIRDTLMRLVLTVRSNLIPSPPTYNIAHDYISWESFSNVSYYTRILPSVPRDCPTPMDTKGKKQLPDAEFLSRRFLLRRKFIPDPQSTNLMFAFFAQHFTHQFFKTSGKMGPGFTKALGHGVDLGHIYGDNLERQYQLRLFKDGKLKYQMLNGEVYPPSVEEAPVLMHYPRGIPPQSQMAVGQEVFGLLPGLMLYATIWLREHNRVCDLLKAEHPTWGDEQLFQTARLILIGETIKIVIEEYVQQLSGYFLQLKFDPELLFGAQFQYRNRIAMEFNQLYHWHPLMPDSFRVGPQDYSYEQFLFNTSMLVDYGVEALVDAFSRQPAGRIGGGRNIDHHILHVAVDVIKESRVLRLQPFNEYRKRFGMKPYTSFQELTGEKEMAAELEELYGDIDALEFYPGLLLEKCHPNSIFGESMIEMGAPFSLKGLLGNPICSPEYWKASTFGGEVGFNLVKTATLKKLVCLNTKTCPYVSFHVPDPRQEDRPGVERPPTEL
# Ovis aries = organism: Ovis aries; experiment: Selectivity ratio of COX-1 to that of COX-2
Structure (SMILES),IC50 [1],IC50 [2],Selectivity (Ovis aries)
CC(C(=O)O)c1ccc(-c2ccccc2)cc1 (stereo not drawn),21 nM,–,–
C=CCc1cccc(-c2ccc(C(C)C(=O)O)cc2)c1 (stereo not drawn),150 nM,1400 nM,9.3
CC(C)c1cccc(-c2ccc(C(C)C(=O)O)cc2F)c1 (stereo not drawn),> 100000 nM,15000 nM,< 0.15
CCSc1cccc(-c2ccc(C(C)C(=O)O)cc2)c1 (stereo not drawn),330 nM,3100 nM,9.4
C=Cc1cncc(-c2ccc(C(C)C(=O)O)cc2)c1 (stereo not drawn),190 nM,190 nM,1
CCOc1cc(OCC)cc(-c2ccc(C(C)C(=O)O)cc2F)c1 (stereo not drawn),100 nM,7700 nM,77
CCOc1cccc(-c2ccc(C(C)C(=O)O)cc2F)c1 (stereo not drawn),14 nM,14 nM,1
CCOc1cc(OCC)cc(-c2ccc(C(C)C(=O)O)cc2)c1 (stereo not drawn),320 nM,25000 nM,78
CC(C(=O)O)c1ccc(-c2ccc3[nH]ccc3c2)cc1 (stereo not drawn),190 nM,100 nM,0.53
C/C=C/c1cncc(-c2ccc(C(C)C(=O)O)cc2)c1 (stereo not drawn),670 nM,15500 nM,23
COc1cc(OC)cc(-c2ccc(C(C)C(=O)O)cc2F)c1 (stereo not drawn),70 nM,63 nM,0.9
Cc1cc(C)cc(-c2ccc(C(C)C(=O)O)cc2F)c1 (stereo not drawn),19000 nM,15000 nM,0.79
Cc1cc2cc(-c3ccc(C(C)C(=O)O)cc3)ccc2[nH]1 (stereo not drawn),230 nM,10500 nM,45
CCc1cccc(-c2ccc(C(C)C(=O)O)cc2)c1 (stereo not drawn),2400 nM,5800 nM,2.4
C=Cc1cccc(-c2ccc(C(C)C(=O)O)cc2)c1 (stereo not drawn),730 nM,1300 nM,1.8
